From the OPERA property sets (Mansouri et al. 2018)

Compound | logP
N#CN=[N+]([O-])c1cccc(C(F)(F)F)c1 | 2.52
N#CN=[N+]([O-])c1ccc(F)cc1 | 1.8
COc1ccc(/[N+]([O-])=N/C#N)cc1 | 2.15
CCNc1nonc1N | 0.51
N#CN=[N+]([O-])c1ccnc2ccccc12 | 2.07
N#C/N=[N+](\[O-])c1ccccn1 | 0.53
N#CN=[N+]([O-])c1ncccn1 | -0.13
N#C/N=[N+](\[O-])c1cccc([N+](=O)[O-])c1 | 1.45
N#CN=[N+]([O-])c1cccc2ccccc12 | 3.17
COc1cccc(/[N+]([O-])=N/C#N)c1 | 2.24
N#C/N=[N+](\[O-])c1cccc(F)c1 | 1.85
N#C/N=[N+](\[O-])c1ccc(Br)cc1 | 2.5
Cc1ccc([N+]([O-])=NC#N)cc1 | 2.39
N#CN=[N+]([O-])c1cnccn1 | 0.1
N#CN=[N+]([O-])c1ccc(Cl)cc1 | 2.33
CN(C)c1ccc(/[N+]([O-])=N/C#N)cc1 | 2.3
N#C/N=[N+](\[O-])c1cccc(Br)c1 | 2.56
Cc1cccc([N+]([O-])=NC#N)c1 | 2.49
N#C/N=[N+](\[O-])c1ccc([N+](=O)[O-])cc1 | 1.51
N#CN=[N+]([O-])c1ccccc1 | 1.87
N#C/N=[N+](\[O-])c1cccc(Cl)c1 | 2.4
N#CN=[N+]([O-])c1ccc(C#N)cc1 | 1.18
N#CN=[N+]([O-])c1ccc(C(F)(F)F)cc1 | 2.47
N#CN=[N+]([O-])c1cccc(C#N)c1 | 1.15
